According to patent US20210022340A1, “USE OF PYRIDINE UREA COMPOUND HAVING SNAIL-KILLING ACTIVITY” (priority 2017, published 2021):
Values after ≈ are worked out from the molar mass of the structure shown.

Assays:
[1] = Acute toxicity to fish; type: in vivo, Danio rerio; settings: Danio rerio, in vivo, pH 7, 96 hour test cycle, 23±1° C., linear interpolation; read-out: Danio rerio the LC50 values at the 96th hour
Procedure: (§1) (2): Study on Acute Toxicity to Fish
(§2) Tested substance: Compound of any of Example 1 to Example 16 of which tested concentrations were respectively 0 mg/L, 20 mg/L, 40 mg/L, 60 mg/L, 80 mg/L, and 100 mg/L.
(§3) Tested fish species: Danio rerio of which body length was 20±1 mm and weight was 0.3±0.1 g.
(§4) Test process: The tested fish was domesticated in continuous aerated diluted water for 7 days before the test. The water quality and lighting conditions during the domestication were consistent with the conditions during the test. Feeding was stopped 24 hours before the test. […] The water temperature during the test was constant at 23±1° C. The dissolved oxygen content during the test should be higher than 60% of the air saturation value, and the pH value was 7.0±0.2. The test cycle is 96 hours. The poisoning symptoms and mortality of the tested fish were observed and recorded at any time within 3 hours to 6 hours after starting the test, and then the poisoning symptoms and mortality of the tested fish at different concentrations were observed and recorded at 24th hour, 48th hour, 72th hour, and 96th hour. The criterion for judging dead fish is to knock the tail of the fish with glasses. If the fish had no action, it is judged that the fish was dead.
(§5) A linear interpolation method was used to draw the curve of the percentage of death relative to the tested concentrations of the compound prepared in Example 4 at 96 hour, thereby the LC50 values at 96th hour are obtained, which was treated with water as a blank control. The LC50 value of the other compound at 96th hour was obtained in this way.

[2] = tested on: Oncomelania hupensis; assay: Snail-killing activity against Oncomelania hupensis (immersion method); type: in vivo; settings: 24 h, 24 hours of immersion, 25° C., linear interpolation, read-out: Oncomelania hupensis the LC50 values at the 24th hour
Procedure: (1): Snail-Killing Activity Against Oncomelania hupensis
Oncomelania hupensis was used as a tested sample and tested by the immersion method. Operation process: Weigh various samples accurately (compounds of any of Example 1 to Example 16), dissolve each sample with 0.2 mL of N,N-dimethylformamide, and dilute each sample to 0.2 mg/L of the drug solution with dechlorinated tap water. Put 30 snails in each beaker and pour 100 ml of the above-mentioned drug solution into each beaker. And cover the plastic gauze on the beaker to prevent the snails from climbing to the liquid surface. Place the above beakers accommodating the drug solution and snails in the incubator under the conditions which is at 25° C. constant temperature, and the humidity is maintained at 60%. and the light is fully. After 24 hours of immersion in the incubator, the drug solution is poured, and each sample is washed for 3 times by using water. Then, 15 mL of dechlorinated tap water is added to resuscitate each sample for 1 hour. Each sample is resuscitated for 1 hour again after 24 hours, and then activity of the snails is determined by knocking after 24 hours. Each sample was set to repeat 3 times. The tested concentrations were respectively 0.1 mg/L, 0.5 mg/L, 1 mg/L, 2 mg/L, 5 mg/L, and 10 mg/L. A linear interpolation method was used to draw a curve of the percentage of death at the 24th hour relative to the tested concentrations of the prepared compounds, thereby the LC50 values at the 24th hour are obtained.
A comparison was made with 0.2 mg/L of niclosamide (positive control) and water containing 0.2 mL/L of N,N-dimethylformamide (blank control).

[3] = tested on: Danio rerio; assay: Acute toxicity to fish; type: in vivo; settings: 96 hour test cycle, 23±1° C., linear interpolation
Procedure: as §1, §2, §3, §4, §5

[4] = tested on: Danio rerio; assay: Acute toxicity to fish; type: in vivo; settings: applied for 1 hour

O=C(Nc1cccnc1)Nc1ccc(Cl)cc1Cl [Compound 8]
LC50 at 96 h [1]: > 100 µg/mL | LC50 [2]: 5.8 µg/mL (≈ 20.6 µM)

O=C(Nc1cccnc1)Nc1ccccc1Cl [Compound 6]
LC50 at 96 h [1]: > 100 µg/mL | LC50 [2]: 9.2 µg/mL (≈ 37.1 µM)

O=C(Nc1ccc([N+](=O)[O-])cc1)Nc1cccnc1 [Compound 10]
LC50 at 96 h [1]: > 100 µg/mL | LC50 [2]: 3.8 µg/mL (≈ 14.7 µM)

O=C(Nc1cccnc1)Nc1ccc(F)cc1F [Compound 1]
LC50 at 96 h [1]: > 100 µg/mL | LC50 [2]: 5 µg/mL (≈ 20.1 µM)

O=C(Nc1cccnc1)Nc1cccc(F)c1 [Compound 11]
LC50 at 96 h [1]: > 100 µg/mL | LC50 [2]: 4.9 µg/mL (≈ 21.2 µM)

O=C(Nc1ccc(OC(F)(F)F)cc1)Nc1cccnc1 [Compound 2]
LC50 at 96 h [1]: > 100 µg/mL | LC50 [2]: 3.5 µg/mL (≈ 11.8 µM)

Cc1cccc(NC(=O)Nc2cccnc2)c1 [Compound 12]
LC50 at 96 h [1]: > 100 µg/mL | LC50 [2]: 8.2 µg/mL (≈ 36.1 µM)

O=C(Nc1ccc(Br)cc1)Nc1cccnc1 [Compound 13]
LC50 at 96 h [1]: 15 µg/mL (≈ 51.3 µM) | LC50 [2]: ~0.5 µg/mL (≈ 1.71 µM)

O=C(Nc1ccc([N+](=O)[O-])cc1Cl)c1cc(Cl)ccc1O [niclosamide, reference compound]
Danio rerio the LC50 values at the 96th hour [3]: 0.2 µg/mL | LC50 at 96 h [1]: 0.21 µg/mL (≈ 0.642 µM) | LC50 [2]: 0.6 µg/mL (≈ 1.83 µM) | fish death [4]: all fish is resulted in almost death

O=C(Nc1cccnc1)Nc1ccccc1F [Compound 3]
LC50 at 96 h [1]: > 100 µg/mL | LC50 [2]: 4.8 µg/mL (≈ 20.8 µM)

O=C(Nc1cccnc1)Nc1ccc(F)cc1C(F)(F)F [Compound 5]
LC50 at 96 h [1]: > 100 µg/mL | LC50 [2]: 8.9 µg/mL (≈ 29.7 µM)

O=C(Nc1ccc(Cl)cc1)Nc1cccnc1 [Compound 14]
LC50 at 96 h [1]: 15 µg/mL (≈ 60.6 µM) | LC50 [2]: ~0.5 µg/mL (≈ 2.02 µM)

Cc1ccccc1NC(=O)Nc1cccnc1 [Compound 15]
LC50 at 96 h [1]: > 100 µg/mL | LC50 [2]: 7.2 µg/mL (≈ 31.7 µM)

O=C(Nc1cccnc1)Nc1ccc(Cl)cc1C(F)(F)F [Compound 7]
LC50 at 96 h [1]: > 100 µg/mL | LC50 [2]: 6.7 µg/mL (≈ 21.2 µM)

O=C(Nc1cccnc1)Nc1cccc(Cl)c1 [Compound 4]
LC50 at 96 h [1]: > 100 µg/mL | LC50 [2]: 5.8 µg/mL (≈ 23.4 µM)

Cc1ccc(NC(=O)Nc2cccnc2)cc1 [Compound 16]
LC50 at 96 h [1]: > 100 µg/mL | LC50 [2]: 8.1 µg/mL (≈ 35.6 µM)

O=C(Nc1cccnc1)Nc1cc(F)cc(F)c1 [Compound 9]
LC50 at 96 h [1]: > 100 µg/mL | LC50 [2]: 4.3 µg/mL (≈ 17.3 µM)
